The results in this text go back to paper PMC10319141, “Imidazoquinolines with improved pharmacokinetic properties induce a high IFNα to TNFα ratio in vitro and in vivo” (Frontiers in Immunology, 2023).

The term EC50 denotes the concentration giving half of the maximal effect.

Where two headings read alike, the source gives them in different places.

The target of one data set is T1, human TLR7 (Homo sapiens, UniProt Q9NYK1).
T1 construct: host or cells: HEK blue hTLR7 reporter cells
T1 sequence (Q9NYK1 27-1049): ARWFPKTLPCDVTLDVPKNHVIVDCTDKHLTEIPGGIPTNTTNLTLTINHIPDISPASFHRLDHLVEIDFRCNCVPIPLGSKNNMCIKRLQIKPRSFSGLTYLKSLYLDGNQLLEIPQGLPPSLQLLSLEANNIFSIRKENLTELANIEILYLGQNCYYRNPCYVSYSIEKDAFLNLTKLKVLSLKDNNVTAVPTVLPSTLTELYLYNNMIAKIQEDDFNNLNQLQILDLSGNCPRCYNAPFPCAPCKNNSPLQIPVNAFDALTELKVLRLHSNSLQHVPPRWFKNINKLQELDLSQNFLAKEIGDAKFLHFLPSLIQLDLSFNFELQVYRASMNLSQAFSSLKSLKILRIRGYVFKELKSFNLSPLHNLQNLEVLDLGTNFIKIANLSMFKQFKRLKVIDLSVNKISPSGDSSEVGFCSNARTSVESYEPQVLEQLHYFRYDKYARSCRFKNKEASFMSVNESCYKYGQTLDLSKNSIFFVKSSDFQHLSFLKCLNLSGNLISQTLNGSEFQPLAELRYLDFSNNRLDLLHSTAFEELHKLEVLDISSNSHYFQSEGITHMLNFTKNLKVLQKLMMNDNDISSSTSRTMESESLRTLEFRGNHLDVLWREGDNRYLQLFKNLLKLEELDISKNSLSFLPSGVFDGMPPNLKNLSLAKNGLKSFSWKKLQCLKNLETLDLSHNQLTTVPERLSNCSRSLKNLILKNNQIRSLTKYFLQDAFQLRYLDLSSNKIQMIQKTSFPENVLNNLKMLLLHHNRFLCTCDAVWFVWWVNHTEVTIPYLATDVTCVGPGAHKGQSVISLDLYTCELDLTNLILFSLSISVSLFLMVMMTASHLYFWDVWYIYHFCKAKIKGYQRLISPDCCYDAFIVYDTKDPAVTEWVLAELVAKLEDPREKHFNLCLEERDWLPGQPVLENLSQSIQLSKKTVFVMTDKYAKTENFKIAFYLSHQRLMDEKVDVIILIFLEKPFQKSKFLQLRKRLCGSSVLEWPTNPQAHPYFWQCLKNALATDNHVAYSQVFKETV
Nature of the data set: HEK-Blue hTLR7 SEAP reporter assay. The conditions noted are these: for TLR7 activity rel. to assay max: average maximal SEAP secretion relative to maximum secretion observed in the assay. The class given is cell-based. On the procedure:
HEK blue hTLR7 or hTLR8 reporter cells (Invivogen) were cultivated in DMEM High Glucose (Biowest) according to the manufacturer’s instructions. Cells were treated with test compounds and controls at various concentrations in serum-free DMEM and incubated at 37°C, 5% CO2 for 24 h before supernatants were collected.
Relative secreted embryonic alkaline phosphatase (SEAP) activity in the supernatants was determined by quantification of para-Nitrophenyl Phosphate (pNPP)-turnover. Supernatants were diluted 10-fold in a solution containing 1 mM MgCl2, 1 M diethanolamine and 1 mg/mL pNPP and incubated at RT for 15 min before the reaction was stopped by the addition of 0.25 volumes of 1 M NaOH. Absorbance was measured at 405 nm on a Versamax microplate reader (Molecular Devices) and normalized to the mean of >5 solvent controls.
To obtain reliable estimates, replicate measurements of a minimum of 2 experiments were normalized to the maximal SEAP activity of a compound in a given experiment and pooled before fitting a non-linear function to the data.
(A reporter such as luciferase makes a cellular process visible.)

The nature of data set [1]: Compound concentrations in organs and blood after 3, 6, 12 µmol/kg s.c. (Figure 4A). The class given is in vivo, C57BL/6 mice. As to conditions: female, C57BL/6, mouse, sc; for concentration at 8 h: 8 h after treatment; for concentration at 1 h: whole blood (peripheral, tail), 1 h post application, whole blood. How it is done:
(§1) All samples were extracted with 3 or 6 volumes acetonitrile containing terbuthylazine as an internal standard (ACN) relative to either sample weight or volume. Liquid samples (plasma, culture medium, cell suspensions in stability experiments) were diluted in either 3 (culture medium, cell suspensions) or 6 (plasma) volumes ACN, pellet and blood samples were extracted by addition of ACN followed by sonication for 5 min. Organ samples were digested with 0.5 µg/mg Proteinase K (Genaxxon) for 1 h at 50°C before being homogenized using a Fastprep FP-24 5G instrument (MP-Biomedicals). Homogenates were diluted with 6 volumes ACN and homogenized again. All extracts were cleared by centrifugation at ~20.000xg for 10 min at 4°C.
(§2) Quantification of analytes was performed on an Agilent 1260/1290 Infinity system fitted with an Agilent C18 Poroshell 120 column (4.6 x 50 mm, 2.7 µm) coupled to a triple quadrupole Sciex API 4000 MS/MS detector. The mobile phase was composed of water containing 0.1% formic acid (eluent A) and acetonitrile containing 0.1% formic acid (eluent B). Gradient used was: 5% B for 0.5 min, to 100% B in 4.5 min, 100% B for 2 min, to 5% B in 0.5 min, 5% for 2.5 min. MS detection parameters are listed in SI Table S1 .
(§3) Formulation. Test compounds were prepared for application in either 1% Tween 80, 9% PEG400 in ultrapure water (Biowest) (i.v., i.p., p.o. application) or 5 mM citric acid in 0.9% saline (Braun) (subcutaneous application). If compounds were administered subcutaneously, injections were carried out into the neck crease.
(§4) Collection of Samples. Mice were bled from the tail vein at various timepoints. Heparin (Sigma) or K2-EDTA (Sigma) was added to blood samples to a final […] concentration of 10-15 Unit or 5 mM. Plasma was generated by centrifugation at 6800xg for 8 min at 4°C and stored at -80°C until analyzed by ELISA or CBA. Animals were sacrificed after the indicated time points by CO2 inhalation. Heart blood and organs for compound quantification by HPLC-MS/MS were collected post mortem and stored at –20°C until extracted as described above.
(A) Organs were sampled 8 h after treatment and compound concentration was determined via HPLC-MS/MS. Data are presented as mean ± SD. (B) Cytokine levels in tail plasma over time were determined via cytometric bead array. At each sampling timepoint the plasma of mice in one treatment group was pooled.

Data set [2] can be described thus: Compound concentrations in organs after activity-adjusted s.c. doses (Figure 5B). It counts as in vivo, C57BL/6 mice. The conditions noted are these: 3 µmol/kg s.c., 8 h post compound application; for concentration at 8 h: female, C57BL/6, mouse, sc. On the procedure:
as §1, §2, §3, §4
Compound concentration in (A) peripheral blood collected via tail bleeding before, 15, 30 60, 120, 240, 360 and 480 min after s.c. compound application and (B) organs collected after 8 h was assessed via HPLC-MS/MS. (A, B) Data are presented as mean ± SD. (C) Levels of TNFα and IFNα as well as (D) IL6, CXCL1, CCL2, IFNβ, IFNγ and IL10 in tail plasma over time were determined via cytometric bead array. Area under the curve (AUC) of each cytokine was plotted against compound concentration.

Where [3] appears, read: 95% CI, HEK-blue human TLR7, 24 h, read-out: TLR7 EC50.
Setting [4] is: Figure S3, axis c/[µM], pooled from 3 experiments, read-out: compound-specific EC50 in dose response plot, HEK Blue hTLR7.
[5] abbreviates: kidney, read-out: concentration in kidney.
[6] abbreviates: liver, read-out: concentration in liver.

For the compound `CCCCc1nc2c(N)nc3ccccc3c2n1CC1CCN(C(=O)CN(C)CC(=O)N(C)[C@H]2C[C@@H](C)O[C@@H](O[C@@H]3[C@@H](C)[C@H](O[C@H]4C[C@@](C)(OC)[C@@H](O)[C@H](C)O4)[C@@H](C)C(=O)O[C@H](CC)[C@@](C)(O)[C@H](O)[C@@H](C)N(C)C[C@H](C)C[C@@]3(C)O)[C@@H]2O)CC1` [A2-mac], on human TLR7, the “Average maximal activity in HEK-Blue hTLR7 relative to RSQ” value worked out at 63% and the “TLR7 activity rel. to assay max” value is reported as 63% ± 9%. For the same compound, the EC50 on human TLR7 (setting [3]) lay in the range of 1.5 to 2 µM. The EC50 on human TLR7 (setting [4]) was determined as 1.76 µM.

Regarding `CCCCc1nc2c(N)nc3ccccc3c2n1CCC1CCNCC1` [A1], the “Average maximal activity in HEK-Blue hTLR7 relative to RSQ” value on human TLR7 came to 58%. Moreover, the EC50 at human TLR7 (setting [3]) was 0.096 to 0.22 µM; on human TLR7 (setting [4]), 0.146 µM. The “TLR7 activity rel. to assay max” value on human TLR7 is 58% ± 16%. For the same compound, the concentration at 8 h in data set [1] (setting [5]) came out at 636 nM; in data set [1] (setting [6]), 173 nM; in data set [1] (lung, read-out: concentration in lung) it was 868 nM; in data set [2] (setting [5]), 469 nM; in data set [2] (setting [6]) it was 45 nM. The compound further came in with a concentration at 1 h in data set [1] of 1560 nM.

As for `CCCCc1nc2c(N)nc3ccccc3c2n1CCC1CCN(C(=O)CN(C)CC(=O)N(C)C2CC(C)OC(OC3C(C)C(OC4CC(C)(OC)C(O)C(C)O4)C(C)C(=O)OC(CC)C(C)(O)C(O)C(C)N(C)CC(C)CC3(C)O)C2O)CC1` (centres unmarked) [A1-mac], the “Average maximal activity in HEK-Blue hTLR7 relative to RSQ” value on human TLR7 was found to be 41%. Further, the EC50 on human TLR7 (setting [3]) is 0.4 to 0.74 µM; on human TLR7 (setting [4]), 0.554 µM. The “TLR7 activity rel. to assay max” value at human TLR7 is 41% ± 8%. Further, the concentration at 8 h in data set [1] (setting [5]) amounted to 5480 nM; in data set [1] (setting [6]), 5100 nM; in data set [2] (setting [5]) it was 2180 nM; in data set [2] (setting [6]), 6030 nM. Besides, in data set [1], the concentration at 1 h stood at 696 nM.

With `CCOCc1nc2c(N)nc3ccccc3c2n1CC(C)(C)O` [RSQ, Resiquimod, reference compound], on human TLR7, the “TLR7 activity rel. to assay max” value is reported as 95% ± 5%. In addition, in data set [1], the concentration at 1 h was 175 nM. In data set [2], the concentration in liver result is on record as “< LLOQ”.
